From patent EP0021685A1
In brackets after ≈: the same amount, converted by molar mass.

Key:
[1] = system: Neurospora crassa; experiment: Disc-diffusion antifungal test; conditions: read-out: Zone diameters (mm)
[2] = system: Trichophyton mentagrophytes; experiment: Disc-diffusion antifungal test; conditions: for zone of inhibition at 10000 µg/mL: read-out: Zone diameters (mm)
[3] = system: Histoplasma capsulatum; experiment: microbe, parasite or virus in culture; assay type: cell-based
[4] = physchem; conditions: 66% aqueous dimethylformamide, pH 7.12
[5] = system: Candida albicans; experiment: Disc-diffusion antifungal test; conditions: 6-mm pads dipped in solutions of test compound
[6] = system: Blastomyces dermatitidis; experiment: Standard agar-dilution test; assay type: cell-based

Row | SMILES | zone of inhibition at 10000 µg/mL [1] [mm] | zone of inhibition at 10000 µg/mL [2] [mm] | MIC [3] [µg/mL] | pKa [4] | MIC (mcg/disc) [5] [mcg/disc] | MIC (mcg/disc) ([2]; disc-diffusion, 6-mm pads dipped in solutions of test compound) | MIC [6] [µg/mL]
1 | CCCCC/C=C\C/C=C\CCCCCCCC(=O)N[C@H]1C[C@@H](O)[C@@H](OCCCCCC)NC(=O)[C@@H]2[C@@H](O)[C@@H](C)CN2C(=O)[C@H]([C@@H](C)O)NC(=O)[C@H]([C@H](O)[C@@H](O)c2ccc(O)cc2)NC(=O)[C@@H]2C[C@@H](O)CN2C(=O)[C@H]([C@@H](C)O)NC1=O [R = n-hexyl] | 25 | 35 | – | – | – | – | –
2 | CCCCC/C=C\C/C=C\CCCCCCCC(=O)N[C@H]1C[C@@H](O)[C@@H](OC)NC(=O)[C@@H]2[C@@H](O)[C@@H](C)CN2C(=O)[C@H]([C@@H](C)O)NC(=O)[C@H]([C@H](O)[C@@H](O)c2ccc(O)cc2)NC(=O)[C@@H]2C[C@@H](O)CN2C(=O)[C@H]([C@@H](C)O)NC1=O | – | – | 100 (≈ 93.1 µM) | ~12.9 | 1.25 | 0.078 | 100 (≈ 93.1 µM)
3 | CCCCC/C=C\C/C=C\CCCCCCCC(=O)N[C@H]1C[C@@H](O)[C@@H](OCCC)NC(=O)[C@@H]2[C@@H](O)[C@@H](C)CN2C(=O)[C@H]([C@@H](C)O)NC(=O)[C@H]([C@H](O)[C@@H](O)c2ccc(O)cc2)NC(=O)[C@@H]2C[C@@H](O)CN2C(=O)[C@H]([C@@H](C)O)NC1=O [R = n-propyl] | 20 | 35 | – | – | – | – | –
